pEC50, pIC50: −log10 of the molar value. Values after ≈ are worked out from the molar mass of the structure shown.
What was measured:
Micrococcus luteus = experiment: Antimicrobial activity against Sarcina lutea assessed as microbial growth inhibition; format: functional
Corynebacterium xerosis = experiment: Antimicrobial activity against Corynebacterium xerosis assessed as microbial growth inhibition; format: functional
[1] = tested on: Mycobacterium tuberculosis; experiment: Antibacterial activity against […] assessed as bacterial growth inhibition; format: functional
Staphylococcus aureus [2] = experiment: Antibiofilm activity against Staphylococcus aureus ATCC 25923 assessed as inhibition of biofilm formation incubated for 24 hrs by crystal violet method; format: functional, organism-based; details: ATCC 25923, 24 h
Pseudomonas aeruginosa [3] = experiment: Antibiofilm activity against Pseudomonas aeruginosa assessed as inhibition of biofilm formation incubated for 24 hrs by crystal violet method; format: functional, organism-based
Candida albicans [4] = experiment: Antifungal activity against Candida albicans assessed as fungal growth inhibition; format: functional, organism-based
Cryptococcus neoformans = experiment: Antifungal activity against Cryptococcus neoformans assessed as fungal growth inhibition; format: functional, organism-based
[5] = tested on: Trichophyton mentagrophytes; experiment: Antifungal activity against Trichophyton mentagrophytes assessed as fungal growth inhibition; format: functional, organism-based
Aspergillus niger = experiment: Antifungal activity against Aspergillus niger assessed as fungal growth inhibition; format: functional, organism-based
Staphylococcus aureus [6] = experiment: Antibiofilm activity against Methicillin-resistant Staphylococcus aureus B1 assessed as inhibition of biofilm formation measured after 24 to 48 hrs by MTT assay; format: functional; details: time 24-48 hrs
Enterococcus faecalis = experiment: Antibiofilm activity against Vancomycin-resistant Enterococcus faecalis W1 assessed as inhibition of biofilm formation measured after 24 to 48 hrs by MTT assay; format: functional; details: time 24-48 hrs
Escherichia coli = experiment: Antibacterial activity against Escherichia coli assessed as bacterial growth inhibition by agar dilution method; format: functional
Klebsiella aerogenes = experiment: Antibacterial activity against Enterobacter aerogenes assessed as bacterial growth inhibition by agar dilution method; format: functional
Vibrio natriegens [7] = experiment: Antimicrobial activity against Vibrio natriegens ATCC 14048 assessed as microbial growth inhibition incubated for 48 hrs by spectrophotometry; format: functional
Vibrio natriegens [8] = experiment: Antimicrobial activity against Vibrio natriegens ATCC 14048 assessed as inhibition of bacterial adhesion incubated for 48 hrs by crystal staining method; format: functional
Pseudomonas aeruginosa [9] = experiment: Antibacterial activity against Pseudomonas aeruginosa ATCC 9027 assessed as bacterial growth inhibition incubated for 24 hrs by agar diffusion method; format: functional
Candida albicans [10] = experiment: Antifungal activity against Candida albicans ATCC 2091 assessed as fungal growth inhibition incubated for 24 hrs by agar diffusion method; format: functional
Staphylococcus aureus [11] = experiment: Antibacterial activity against Staphylococcus aureus ATCC 6538 assessed as bacterial growth inhibition incubated for 24 hrs by agar diffusion method; format: functional
Candida albicans [12] = experiment: Antimicrobial activity against Candida albicans assessed as microbial growth inhibition measured after 24 hrs by agar dilution method; format: functional
Acinetobacter baumannii = experiment: Antibacterial activity against Acinetobacter baumannii ATCC 19606 assessed as bacterial growth inhibition incubated for 24 hrs by broth micro dilution method; format: functional
Staphylococcus aureus [13] = experiment: Antimicrobial activity against methicillin-resistant Staphylococcus aureus assessed as microbial growth inhibition by broth microdilution method; format: functional
Hepatitis C virus = experiment: Antiviral activity against HCV J8CC infected in human Huh7.5 cells assessed as viral growth inhibition incubated for 48 hrs by light microscopy; format: functional, organism-based, Hepacivirus hominis; details: Huh7.5, 48 h
Staphylococcus aureus [14] = experiment: Antibiofilm activity against Staphylococcus aureus ATCC 6538 assessed as inhibition of biofilm formation incubated for 24 hrs by crystal violet method; format: functional, organism-based; details: ATCC 6538, 24 h

## O=C1N=C(C(=O)c2c[nH]c3ccc(Br)cc23)N/C1=C\c1c[nH]c2ccccc12
Micrococcus luteus
  MIC: 36.9 µM (≈ 16 µg/mL)
Corynebacterium xerosis
  MIC: 36.9 µM (≈ 16 µg/mL)

## C=CC(C)(C)c1[nH]c2ccccc2c1/C=c1\[nH]c(=O)c2n(c1=O)CCC=2C1=c2c(=O)[nH]/c(=C\c3c(C(C)(C)C=C)[nH]c4ccccc34)c(=O)n2CC1
[1]
  MIC: 9 µM (≈ 6.24 µg/mL)

## COCCn1cc(-c2nc(-c3cn(C)c4ccccc34)cs2)c2cc(F)ccc21
Staphylococcus aureus [2]
  pIC50: 6.40

## Cn1cc(-c2csc(-c3cn(CCN)c4ccc(F)cc34)n2)c2ccccc21
Pseudomonas aeruginosa [3]
  pIC50: 5.00

## O=C(O)[C@@H]1Cc2c[nH]c3ccc4oc5nc6ccc(O)cc6c-5c(c4c23)N1
Candida albicans [4]
  pIC50: 5.55
Cryptococcus neoformans
  pIC50: 4.95

## Oc1ccc2nc3oc4ccc5[nH]cc6cc[nH]c(c-3c2c1)c4c65
Candida albicans [4]
  pIC50: 5.49
Cryptococcus neoformans
  pIC50: 5.19
[5]
  pIC50: 4.29
Aspergillus niger
  pIC50: 4.89

## CC(C)[C@@H]1NC(=O)[C@@H](C[C@]2(O)c3ccccc3N3C(=O)[C@@H](C)N[C@H]32)n2c1nc1ccccc1c2=O
Staphylococcus aureus [6]
  BIC: 202.7 µM
Enterococcus faecalis
  BIC: 168.9 µM

## CC(C)[C@H]1NC(=O)[C@@H]2CC3(C45C[C@H]6C(=O)N[C@H](C(C)C)C(=O)N6[C@H]4Nc4ccccc45)c4ccccc4N[C@@H]3N2C1=O (stereo not given in full)
Escherichia coli
  MIC: 44 µM (≈ 25 µg/mL)
Klebsiella aerogenes
  MIC: 44 µM (≈ 25 µg/mL)

## O=C1NC(C(=O)c2c[nH]c3ccc(O)cc23)c2c(O)ccc3[nH]cc(c23)C1=O (stereo not given)
[5]
  pIC50: 4.37
Aspergillus niger
  pIC50: 4.67

## Cn1cnc(C(=O)c2nc3c4c5c(nccc5c(C(C[N+](C)(C)C)c5c[nH]c6cc(Br)ccc56)c3o2)C=CN4)c1 (stereo not given)
Aspergillus niger
  MIC: 26.8 µM

## C/N=C1\NC(Cc2c[nH]c3cc(Br)ccc23)C(=O)N1C (stereo not given)
Vibrio natriegens [7]
  MIC: 0.03 µM (≈ 0.0101 µg/mL)
Vibrio natriegens [8]
  MIC: 298 µM (≈ 100 µg/mL)

## Cn1cc(C(=O)c2nc(C(=O)O)cc3c2[nH]c2ccc(O)cc23)[n+](C)c1
Candida albicans [4]
  pIC50: 4.34
Cryptococcus neoformans
  pIC50: 4.94
[5]
  pIC50: 4.34
Aspergillus niger
  pIC50: 4.64

## NC(=O)c1c(-c2c[nH]c3cc(O)ccc23)ncc2[nH]c3ccc(O)cc3c12
Pseudomonas aeruginosa [9]
  diameter of the inhibition zone (DIZ): 7 mm
Candida albicans [10]
  diameter of the inhibition zone (DIZ): 9 mm
Staphylococcus aureus [11]
  diameter of the inhibition zone (DIZ): 10 mm

## C[N+](C)(C)CC(c1c[nH]c2ccccc12)c1c(O)c(O)c2c3c(nccc13)C=CN2 (stereo not given)
Candida albicans [4]
  pIC50: 4.70

## CC(=O)[C@H]1N=C(c2c[nH]c3ccc(O)cc23)c2c(O)ccc3[nH]cc(c23)[C@H]1O
Aspergillus niger
  pIC50: 4.07

## O=C1N[C@H]2c3nc4ccccc4c(=O)n3[C@H]1C[C@@]1(O)c3ccccc3N3C(=O)C4(CC4)N2[C@@H]31
Candida albicans [12]
  MIC: 22.6 µM (≈ 9.98 µg/mL)

## C[C@@H]1N[C@H]2N(C1=O)c1ccccc1[C@@]2(O)C[C@H](C(=O)O)n1cnc2ccccc2c1=O
Acinetobacter baumannii
  MIC: 14.9 µM (≈ 6.26 µg/mL)

## O=C(C1=N[C@@H](c2c[nH]c3cc(Br)ccc23)CN1)c1c[nH]c2ccccc12
Staphylococcus aureus [13]
  MIC: 15.4 µM (≈ 6.27 µg/mL)

## COc1ccc2[nH]c3cnc(-c4c[nH]c5cc(O)ccc45)c(C(=O)O)c3c2c1
Pseudomonas aeruginosa [9]
  diameter of the inhibition zone (DIZ): 7 mm
Candida albicans [10]
  diameter of the inhibition zone (DIZ): 9 mm
Staphylococcus aureus [11]
  diameter of the inhibition zone (DIZ): 10 mm

## O=C(c1c[nH]c2ccc(O)cc12)[C@H](O)[C@@H](O)C(=O)c1c[nH]c2ccc(O)cc12
[5]
  pIC50: 4.38
Aspergillus niger
  pIC50: 4.68

## Cn1c[n+](C)c(C(=O)c2nc(C(=O)O)cc3c2[nH]c2ccc(O)cc23)c1[S+](C)[O-] (stereo not given)
Candida albicans [4]
  pIC50: 5.32

## CC1(C)C(=O)N2c3ccccc3[C@@]3(C[C@H]4n5c(nc6ccccc6c5=O)C(=O)C(C)(C)[C@@]4(O)O3)[C@@H]2N1S(C)(=O)=O
Hepatitis C virus
  pEC50: 3.96

## COCCn1cc(-c2nc(-c3c[nH]c4ccccc34)cs2)c2cc(F)ccc21
Staphylococcus aureus [14]
  pIC50: 6.15

— ChEMBL document CHEMBL5113373, “Tryptophan derived natural marine alkaloids and synthetic derivatives as promising antimicrobial agents” (Eur J Med Chem, 2021)
